Here are results for one molecule from article PMC5797729, “Structure/Function Studies of the α4 Subunit Reveal Evolutionary Loss of a GlyR Subtype Involved in Startle and Escape Responses” (Frontiers in Molecular Neuroscience, 2018).

Molecules are shown by their SMILES.

The target of one assay is T1, Gorilla α4 GlyR (Gorilla gorilla, UniProt G3RDJ8).
T1 construct: gene GLRA4; full-length synthetic predicted cDNA in pRK5, homomeric pentamer, HEK293 cells
T1 sequence (G3RDJ8 29-457): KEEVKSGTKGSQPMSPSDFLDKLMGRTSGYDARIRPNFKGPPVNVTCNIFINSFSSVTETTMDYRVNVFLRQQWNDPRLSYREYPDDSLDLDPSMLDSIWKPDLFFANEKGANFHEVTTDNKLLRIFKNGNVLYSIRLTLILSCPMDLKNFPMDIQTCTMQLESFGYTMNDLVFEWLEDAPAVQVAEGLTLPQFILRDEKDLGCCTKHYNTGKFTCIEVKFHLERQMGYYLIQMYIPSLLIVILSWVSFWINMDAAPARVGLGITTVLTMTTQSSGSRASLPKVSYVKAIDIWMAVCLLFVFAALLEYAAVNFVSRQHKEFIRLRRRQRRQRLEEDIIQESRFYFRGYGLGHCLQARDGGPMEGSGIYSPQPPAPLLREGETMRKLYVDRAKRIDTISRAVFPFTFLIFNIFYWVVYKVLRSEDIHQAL
Kind of assay: whole-cell patch clamp, Hill fit. The format is cell-based. From the text: whole-cell patch clamp, Hill fit on Gorilla α4 GlyR

A further assay has as its target T2, Mouse α4 GlyR (Mus musculus, UniProt Q61603).
T2 construct: gene Glra4; full-length wild-type cDNA from whole brain in pRK5, homomeric pentamer, HEK293 cells
T2 sequence (Q61603 28-456): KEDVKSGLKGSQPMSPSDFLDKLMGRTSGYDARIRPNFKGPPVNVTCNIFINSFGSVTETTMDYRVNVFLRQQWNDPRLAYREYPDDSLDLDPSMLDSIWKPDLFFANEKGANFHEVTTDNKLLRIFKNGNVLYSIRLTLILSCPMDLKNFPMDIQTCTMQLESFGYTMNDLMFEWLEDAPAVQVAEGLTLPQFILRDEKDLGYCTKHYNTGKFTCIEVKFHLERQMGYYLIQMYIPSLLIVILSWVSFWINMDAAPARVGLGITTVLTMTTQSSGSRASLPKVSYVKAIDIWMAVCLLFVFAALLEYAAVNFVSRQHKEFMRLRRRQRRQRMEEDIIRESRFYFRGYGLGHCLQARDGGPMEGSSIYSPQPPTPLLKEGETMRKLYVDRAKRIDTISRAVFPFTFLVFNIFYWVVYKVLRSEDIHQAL
Kind of assay: whole-cell patch clamp, Hill fit. The format is cell-based. The text has this: whole-cell patch clamp, Hill fit on Mouse α4 GlyR
(The patch-clamp technique gives a direct electrical read-out from membranes.)

Another assay deals with T3, Human α4^K59E/C204Y + α1.
T3 construct: gene GLRA1
Conditions: agonist; -40 mV; pH 7.4; 22 °C. The text has this: whole-cell patch clamp, Hill fit on Human α4^K59E/C204Y + α1

Broadly, the EC50 is the midpoint of the concentration-response curve. As for `NCC(=O)O` [glycine], the EC50 is 86 ± 16 µM on Gorilla α4 GlyR, 61 ± 10 µM at Mouse α4 GlyR and 350 ± 29 µM with Human α4^K59E/C204Y + α1.
